Publication PMC9286713 (CPT: Pharmacometrics & Systems Pharmacology, 2022)
Values after ≈ are worked out from the molar mass of the structure shown. Read-outs that look alike come from different tables or passages of the source.

Columns and labels:
[1] = human ADME study (unpublished data); cited from earlier work
logP determination = type: physicochemical
pKa determination = type: physicochemical
[2] = Solubility‐pH profile in buffers at 37°C; type: physicochemical
Blood/plasma ratio = type: in vitro ADME; details: blood and plasma
MATE1 = molecular target: T1, MATE1 (Homo sapiens, UniProt Q96FL8); test: MATE1 inhibition; type: in vitro ADME
T1 sequence (Q96FL8 1-570): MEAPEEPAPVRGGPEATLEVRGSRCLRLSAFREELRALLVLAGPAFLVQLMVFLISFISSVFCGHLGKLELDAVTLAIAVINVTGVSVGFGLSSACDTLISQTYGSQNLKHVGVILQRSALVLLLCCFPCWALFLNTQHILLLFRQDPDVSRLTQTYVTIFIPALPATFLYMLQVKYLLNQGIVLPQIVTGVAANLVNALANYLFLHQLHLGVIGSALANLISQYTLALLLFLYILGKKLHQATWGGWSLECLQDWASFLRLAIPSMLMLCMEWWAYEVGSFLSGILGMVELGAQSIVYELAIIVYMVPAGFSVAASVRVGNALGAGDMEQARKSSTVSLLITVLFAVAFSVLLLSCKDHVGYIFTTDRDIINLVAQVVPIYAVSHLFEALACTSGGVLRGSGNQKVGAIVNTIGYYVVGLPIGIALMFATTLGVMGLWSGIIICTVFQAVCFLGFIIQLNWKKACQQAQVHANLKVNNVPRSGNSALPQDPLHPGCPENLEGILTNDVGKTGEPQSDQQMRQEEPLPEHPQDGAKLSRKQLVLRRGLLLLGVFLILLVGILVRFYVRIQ

P‐glycoprotein (P‐gp) = P‐glycoprotein (P‐gp) (Homo sapiens, UniProt P08183); test: In vitro transport study, pemigatinib as substrate: P‐gp mediated efflux; type: in vitro ADME; details: data on file
[3] = Human mass balance / ADME study in healthy participants; type: in vivo
[4] = cited from earlier work; for Observed AUC0–∞: geometric mean
[5] = patients with cancer, cited from earlier work; for Observed AUCss,0–24: geometric mean
[6] = fed state; cited from earlier work
[7] = cited from earlier work
OCT2 = molecular target: T2, OCT2 (Homo sapiens, UniProt O15244); test: OCT2 inhibition
T2 sequence (O15244 1-555): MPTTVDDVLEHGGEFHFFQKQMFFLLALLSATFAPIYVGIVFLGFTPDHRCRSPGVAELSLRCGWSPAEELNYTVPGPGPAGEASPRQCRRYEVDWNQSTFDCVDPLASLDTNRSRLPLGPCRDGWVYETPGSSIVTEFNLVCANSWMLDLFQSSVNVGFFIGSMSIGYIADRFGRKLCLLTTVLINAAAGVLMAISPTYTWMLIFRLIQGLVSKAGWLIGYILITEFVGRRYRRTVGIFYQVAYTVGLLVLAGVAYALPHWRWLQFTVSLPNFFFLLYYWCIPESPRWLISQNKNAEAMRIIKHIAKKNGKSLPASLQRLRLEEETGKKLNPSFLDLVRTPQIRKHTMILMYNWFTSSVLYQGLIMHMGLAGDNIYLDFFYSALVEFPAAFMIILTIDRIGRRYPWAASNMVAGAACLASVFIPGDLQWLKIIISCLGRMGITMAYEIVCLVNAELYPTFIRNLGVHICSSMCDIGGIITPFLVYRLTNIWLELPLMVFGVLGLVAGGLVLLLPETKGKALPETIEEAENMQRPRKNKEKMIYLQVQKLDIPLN

P‐gp = P‐gp (Homo sapiens, UniProt P08183); test: P‐gp inhibition
[8] = healthy participants, unpublished data

Sequence of P‐glycoprotein (P‐gp) (P08183 whole entry): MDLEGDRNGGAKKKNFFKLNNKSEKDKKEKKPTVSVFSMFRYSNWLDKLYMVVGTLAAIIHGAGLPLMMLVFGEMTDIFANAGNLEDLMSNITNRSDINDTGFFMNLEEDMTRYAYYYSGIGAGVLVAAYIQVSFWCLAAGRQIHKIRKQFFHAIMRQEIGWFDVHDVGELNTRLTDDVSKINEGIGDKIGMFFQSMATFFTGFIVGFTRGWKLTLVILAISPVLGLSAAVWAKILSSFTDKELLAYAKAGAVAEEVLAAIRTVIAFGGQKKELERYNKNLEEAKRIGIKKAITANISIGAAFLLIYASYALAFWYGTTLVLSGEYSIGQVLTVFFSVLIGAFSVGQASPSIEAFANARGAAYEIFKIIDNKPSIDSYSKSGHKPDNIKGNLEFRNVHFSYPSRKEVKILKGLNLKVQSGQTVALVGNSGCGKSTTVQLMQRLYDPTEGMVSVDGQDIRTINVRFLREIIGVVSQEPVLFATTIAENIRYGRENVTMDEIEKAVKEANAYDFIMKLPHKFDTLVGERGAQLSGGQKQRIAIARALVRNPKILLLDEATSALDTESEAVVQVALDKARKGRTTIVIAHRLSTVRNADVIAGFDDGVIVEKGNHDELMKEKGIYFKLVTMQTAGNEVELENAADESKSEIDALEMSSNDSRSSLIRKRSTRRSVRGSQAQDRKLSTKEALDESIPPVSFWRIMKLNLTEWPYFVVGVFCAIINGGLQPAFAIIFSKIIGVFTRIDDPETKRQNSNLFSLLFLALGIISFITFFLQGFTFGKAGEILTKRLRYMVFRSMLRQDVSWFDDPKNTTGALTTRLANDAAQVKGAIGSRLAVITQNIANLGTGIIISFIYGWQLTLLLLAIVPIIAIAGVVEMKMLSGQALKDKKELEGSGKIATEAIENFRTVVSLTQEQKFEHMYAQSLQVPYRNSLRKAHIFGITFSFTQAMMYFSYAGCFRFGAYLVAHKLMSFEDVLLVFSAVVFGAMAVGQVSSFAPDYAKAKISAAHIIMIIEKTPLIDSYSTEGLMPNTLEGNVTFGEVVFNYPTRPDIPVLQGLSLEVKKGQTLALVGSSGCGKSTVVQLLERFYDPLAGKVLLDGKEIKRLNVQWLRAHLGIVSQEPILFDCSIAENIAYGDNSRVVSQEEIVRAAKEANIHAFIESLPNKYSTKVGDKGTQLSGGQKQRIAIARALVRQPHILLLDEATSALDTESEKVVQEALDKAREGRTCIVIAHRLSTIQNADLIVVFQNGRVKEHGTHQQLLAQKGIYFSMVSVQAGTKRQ
Sequence of P‐gp (P08183 whole entry): as above

## CCN1C(=O)N(c2c(F)c(O)cc(OC)c2F)Cc2cnc3[nH]c(CN4CCOCC4)cc3c21 [M2, O‐desmethyl‐pemigatinib]
[1]
  Metabolite burden in urine and feces derived from M2 and its secondary metabolites: 76.9%

## CCN1C(=O)N(c2c(F)c(OC)cc(OC)c2F)Cc2cnc3[nH]c(CN4CCOCC4)cc3c21 [pemigatinib, Pemigatinib]
logP determination
  logP: 2.2
pKa determination
  Compound type: Diprotic base
pKa determination; first printed pKa of the diprotic base
  pKa: 5.7
pKa determination; second printed pKa of the diprotic base
  pKa: 3.1
[2]; buffer, 37 °C, pH 1.2, aqueous buffer, Solubility, pH 1.2 buffer
  solubility: ~710 µg/mL (≈ 1460 µM)
[2]; buffer, 37 °C, pH 2, aqueous buffer, Solubility, pH 2.0 buffer
  solubility: 650 µg/mL (≈ 1330 µM)
[2]; buffer, 37 °C, pH 6.5, aqueous buffer, Solubility, pH 6.5 buffer
  solubility: < 1 µg/mL
[2]; buffer, 37 °C, pH 7.4, aqueous buffer, Solubility, pH 7.4 buffer
  solubility: < 1 µg/mL
[2]; buffer, pH 3.3, Solubility, pH 3.3
  solubility: 200 µg/mL (≈ 410 µM)
[2]; buffer, pH 4.3, Solubility, pH 4.3
  solubility: 30 µg/mL (≈ 61.5 µM)
[2]; buffer, pH 5.3, Solubility, pH 5.3
  solubility: 1 µg/mL (≈ 2.05 µM)
[2]; pH 1.2 buffer, 37°C
  solubility: 710 µg/mL (≈ 1460 µM)
Blood/plasma ratio
  blood plasma ratio: 0.96
MATE1
  IC50: 1100 nM
P‐glycoprotein (P‐gp)
  Concentration at which P‐gp mediated efflux was saturated: 1000 nM
[3]; [8]
  Total radioactivity excreted in feces: 82.4%
  Total radioactivity excreted in urine: 12.6%
[3]; human ADME study
  Radioactivity blood/plasma value: 0.80
[3]; human, urine, oral
  CL renal: ~3.33 mL/min
[3]; in vivo
  Administered radioactive dose recovered as unchanged pemigatinib in feces: 1.4%
  Dose excreted in urine as unchanged pemigatinib (renal excretion): ~ 1%
[4]; itraconazole coadministration
  Increase in pemigatinib AUC: ~90%
  Increase in pemigatinib Cmax: ~20%
[4]; pemigatinib alone cohort of itraconazole DDI study, healthy volunteers
  CLpo (oral clearance): 14.5 L/h
[4]; rifampin coadministration
  Decrease in half‐life of pemigatinib: 63%
  Decrease in pemigatinib AUC: 85%
[4]; single oral dose 4.5 mg, healthy volunteers
  Observed AUC0–∞: 0.672 µM·h
[4]; single oral dose 13.5 mg, healthy volunteers
  Observed AUC0–∞: 1.96 µM·h
[5]; multiple oral doses 6 mg
  Observed AUCss,0–24: 1.05 µM·h
[5]; multiple oral doses 9 mg
  Observed AUCss,0–24: 1.67 µM·h
[5]; oral dosing
  Terminal half‐life: ~ 15 h
[5]; phase I study
  CLpo (oral clearance): 12.0 L/h
[5]
  Apparent volume of distribution, geometric mean: 173 to 244 L
  SS oral clearance, geometric mean: 9.88 to 11.7 L/h
[6]
  Decrease of geometric mean Cmax: 18%
  Increase of geometric mean AUC0–24 at SS: 11%
[1]
  Total radioactivity accounted for by known metabolites: 72%
[7]; coadministration with esomeprazole
  Decrease of geometric mean AUC of pemigatinib: 8%
[7]; coadministration with histamine‐2 antagonist ranitidine
  Decrease of geometric mean Cmax of pemigatinib: 2%
[7]; coadministration with proton pump inhibitor esomeprazole
  Decrease of geometric mean Cmax of pemigatinib: 35%
[7]; coadministration with ranitidine
  Increase of geometric mean AUC of pemigatinib: 3%
OCT2
  IC50: 75 nM
P‐gp
  IC50: 4800 nM
